Test systems include OVCAR-8 ovarian; SR leukemia; UACC-257 melanoma; HL-60(TB) leukemia; KM12 colon; SK-MEL-5 melanoma; SNB-75 CNS; SK-MEL-2 melanoma; SF-268 CNS; COLO 205 colon.
Experiment in all cases: DTP human tumour cell line panel, 48 h

Molecules are shown by their SMILES.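 Grown in 96-well plates, cells were treated for 48 hours with each compound at five concentrations. Insufficient inhibition: endpoint recorded as highest concentration tested. The concentration for 50% growth inhibition is given as GI50. Definition used: TGI = concentration required for complete inhibition of growth.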

The GI50 is the concentration at which growth is held to half of that of the control. As a reminder, the TGI is the concentration at which net growth stops.

Turning to `CCSc1ccc([C@@H]2[C@@H](N)C(=O)N2c2cc(OC)c(OC)c(OC)c2)cc1`, the GI50 was 176 nM in the assay on OVCAR-8 ovarian; 44.9 nM in the assay with SR leukemia; > 100000 nM with UACC-257 melanoma; 25.7 nM in the assay with HL-60(TB) leukemia; 53.3 nM with KM12 colon; 78.3 nM with SK-MEL-5 melanoma. Moreover, the GI50 with SNB-75 CNS was 37.5 nM; in the assay with SK-MEL-2 melanoma, 47 nM; with SF-268 CNS it was 87.2 nM; in the assay on COLO 205 colon, 51.3 nM. The TGI is > 100000 nM in the assay with OVCAR-8 ovarian; > 100000 nM in the assay on SR leukemia; > 100000 nM in the assay with UACC-257 melanoma; 67 nM in the assay with HL-60(TB) leukemia; > 100000 nM with KM12 colon; > 100000 nM in the assay on SK-MEL-5 melanoma. The TGI in the assay on SNB-75 CNS was > 100000 nM; with SK-MEL-2 melanoma, > 100000 nM; in the assay on SF-268 CNS, > 100000 nM; in the assay with COLO 205 colon, 11700 nM.

Take `O=C(Nc1ccc(Oc2ccc(NC(=O)Nc3ccc([N+](=O)[O-])cc3)cc2)cc1)Nc1ccc([N+](=O)[O-])cc1`: the GI50 was 3170 nM in the assay on OVCAR-8 ovarian; 1350 nM in the assay on SR leukemia; 2820 nM in the assay with UACC-257 melanoma; 787 nM in the assay with HL-60(TB) leukemia; 1530 nM with KM12 colon; 1660 nM with SK-MEL-5 melanoma. The GI50 in the assay on SNB-75 CNS is 2780 nM; in the assay on SK-MEL-2 melanoma, 2030 nM; in the assay on SF-268 CNS, 3100 nM; with COLO 205 colon, 1630 nM. The TGI in the assay on OVCAR-8 ovarian is > 100000 nM; with SR leukemia, 4870 nM; in the assay with UACC-257 melanoma, > 26000 nM; with HL-60(TB) leukemia it was 3410 nM; in the assay on KM12 colon it was > 29700 nM; in the assay with SK-MEL-5 melanoma, 3320 nM. Besides, the TGI in the assay on SNB-75 CNS is > 100000 nM; in the assay with SK-MEL-2 melanoma, 4290 nM; with SF-268 CNS, > 100000 nM; with COLO 205 colon it was 3220 nM.

Take `COc1cc(OC)c(F)c(COc2cnc(Nc3cnn(CCO)c3)nc2)c1F`: the GI50 with OVCAR-8 ovarian is 2240 nM; in the assay on SR leukemia, 274 nM; in the assay with UACC-257 melanoma, 1450 nM; in the assay with HL-60(TB) leukemia, 245 nM; in the assay on KM12 colon, 431 nM; in the assay on SK-MEL-5 melanoma it was 501 nM. Besides, the GI50 in the assay on SNB-75 CNS was 203 nM; with SK-MEL-2 melanoma, 404 nM; with SF-268 CNS, 1030 nM; in the assay with COLO 205 colon it was 607 nM. Also, the total growth inhibition concentration (TGI) with OVCAR-8 ovarian is > 100000 nM; in the assay on UACC-257 melanoma, > 100000 nM; with HL-60(TB) leukemia, 702 nM; with KM12 colon, 7230 nM; in the assay with SK-MEL-5 melanoma, 2710 nM; with SNB-75 CNS, 2320 nM. Besides, the TGI in the assay with SK-MEL-2 melanoma was 2710 nM; in the assay with SF-268 CNS, > 64900 nM; in the assay with COLO 205 colon, 3140 nM.

Regarding `CCCCCCCCCCCCCCCC(=O)OCC1OC(OC)C(NC(=O)N(CCCl)N=O)C(O)C1O` (centres undefined), the TGI in the assay on OVCAR-8 ovarian is 45300 nM; in the assay on SR leukemia it was > 60900 nM; in the assay with UACC-257 melanoma, 47800 nM; in the assay with HL-60(TB) leukemia, 28300 nM; with KM12 colon, 56200 nM; with SK-MEL-5 melanoma, 59900 nM. Also, the TGI worked out at 38500 nM with SNB-75 CNS, 36800 nM with SK-MEL-2 melanoma, 37400 nM in the assay on SF-268 CNS and 47400 nM with COLO 205 colon.

`O=C(CCN1CCCC1)Nc1ccc2c(NCCc3ccccc3)c3ccccc3nc2c1`: the GI50 with OVCAR-8 ovarian was 532 nM; with SR leukemia, 171 nM; in the assay with UACC-257 melanoma, 1020 nM; in the assay on HL-60(TB) leukemia, 389 nM; in the assay on KM12 colon, 466 nM; with SK-MEL-5 melanoma it was 1270 nM. Moreover, the GI50 with SNB-75 CNS is 453 nM; in the assay on SK-MEL-2 melanoma it was 463 nM; in the assay with SF-268 CNS, 481 nM; with COLO 205 colon, 297 nM. The TGI in the assay with OVCAR-8 ovarian is 2720 nM; with SR leukemia, 1560 nM; with UACC-257 melanoma, 2710 nM; in the assay with HL-60(TB) leukemia it was 1670 nM; in the assay with KM12 colon, 1800 nM; with SK-MEL-5 melanoma, 2550 nM. Also, the TGI turned out to be 1700 nM with SNB-75 CNS, 1630 nM with SK-MEL-2 melanoma, 1910 nM in the assay on SF-268 CNS and 1190 nM with COLO 205 colon.

With `COc1ccc(OC(C)C(=O)O)c2c1CCCC2=O` (centres undefined), the TGI in the assay on OVCAR-8 ovarian, with SR leukemia, with UACC-257 melanoma, in the assay with HL-60(TB) leukemia, in the assay with KM12 colon and in the assay with SK-MEL-5 melanoma was > 100000 nM in each case. Besides, the TGI in the assay with SNB-75 CNS, with SK-MEL-2 melanoma, in the assay with SF-268 CNS and in the assay on COLO 205 colon was > 100000 nM throughout.

`COc1ccc(/C=N\NC(=O)c2ccc3nc(-c4ccc(Cl)cc4)[nH]c3c2)cc1`: the GI50 with OVCAR-8 ovarian was 3190 nM; in the assay with SR leukemia, 2870 nM; with UACC-257 melanoma, 3270 nM; with HL-60(TB) leukemia, 13000 nM; in the assay with KM12 colon, 3030 nM; with SK-MEL-5 melanoma, 1890 nM. Further, the GI50 with SNB-75 CNS was 1530 nM; in the assay with SK-MEL-2 melanoma, 3590 nM; in the assay with SF-268 CNS, 2090 nM; in the assay on COLO 205 colon, 1940 nM. Further, the total growth inhibition concentration (TGI) in the assay with OVCAR-8 ovarian was 11500 nM; in the assay on SR leukemia it was 15400 nM; with UACC-257 melanoma, 10100 nM; with HL-60(TB) leukemia, > 100000 nM; in the assay with KM12 colon, 9580 nM; in the assay with SK-MEL-5 melanoma, 3880 nM. Also, the TGI in the assay with SNB-75 CNS was 4580 nM; in the assay on SK-MEL-2 melanoma, 13800 nM; in the assay on SF-268 CNS, 5100 nM; in the assay on COLO 205 colon, 5430 nM.

Regarding `O=C(/C=C/c1ccccc1O)c1cccc2ccccc12`, the TGI in the assay on OVCAR-8 ovarian is > 100000 nM; with SR leukemia, > 100000 nM; in the assay with UACC-257 melanoma, > 100000 nM; in the assay on HL-60(TB) leukemia, > 80800 nM; in the assay on KM12 colon, > 100000 nM; in the assay with SK-MEL-5 melanoma it was > 100000 nM. For the same compound, the TGI in the assay with SNB-75 CNS is > 100000 nM; with SK-MEL-2 melanoma, > 100000 nM; in the assay on SF-268 CNS, > 100000 nM; in the assay with COLO 205 colon, > 68600 nM.

On to `O=c1c2c(=NCCN3CCCC3)cc3c(=O)n(CCCN4CCOCC4)c(=O)c4ccc(c(O)n1CCCN1CCOCC1)c2c4-3`, for which the GI50 with OVCAR-8 ovarian was 100 nM; in the assay on SR leukemia, < 20.1 nM; with UACC-257 melanoma, 707 nM; in the assay on HL-60(TB) leukemia it was 338 nM; in the assay with KM12 colon, 131 nM; in the assay on SK-MEL-5 melanoma, 442 nM. Moreover, the GI50 in the assay with SNB-75 CNS was 234 nM; with SK-MEL-2 melanoma, 239 nM; in the assay with SF-268 CNS, 165 nM; in the assay on COLO 205 colon, 165 nM. For the same compound, the TGI with OVCAR-8 ovarian was > 32800 nM; in the assay on SR leukemia it was 5370 nM; in the assay on UACC-257 melanoma it was 3760 nM; with HL-60(TB) leukemia, 1430 nM; in the assay on KM12 colon, 1220 nM; in the assay on SK-MEL-5 melanoma it was 918 nM. Besides, the TGI in the assay on SNB-75 CNS came out at 1460 nM; in the assay with SK-MEL-2 melanoma, 874 nM; in the assay on SF-268 CNS, 751 nM; in the assay on COLO 205 colon, 423 nM.

Source of the values: PubChem BioAssay (NCI).
